Data reported in US20230218632A1, “CYCLIC SULFONAMIDE DERIVATIVES AS TRAP1 MODULATORS AND USES THEREOF” (Amathus Therapeutics, Inc., priority 2020, published 2023).

Biological target: T1, nanoLuc TRAP1 (Homo sapiens, UniProt Q12931)
T1 construct: expressed in transfected cells; host or cells: SH-SY5Y cells, transient transfection with FuGENE HD
T1 sequence (Q12931 60-704): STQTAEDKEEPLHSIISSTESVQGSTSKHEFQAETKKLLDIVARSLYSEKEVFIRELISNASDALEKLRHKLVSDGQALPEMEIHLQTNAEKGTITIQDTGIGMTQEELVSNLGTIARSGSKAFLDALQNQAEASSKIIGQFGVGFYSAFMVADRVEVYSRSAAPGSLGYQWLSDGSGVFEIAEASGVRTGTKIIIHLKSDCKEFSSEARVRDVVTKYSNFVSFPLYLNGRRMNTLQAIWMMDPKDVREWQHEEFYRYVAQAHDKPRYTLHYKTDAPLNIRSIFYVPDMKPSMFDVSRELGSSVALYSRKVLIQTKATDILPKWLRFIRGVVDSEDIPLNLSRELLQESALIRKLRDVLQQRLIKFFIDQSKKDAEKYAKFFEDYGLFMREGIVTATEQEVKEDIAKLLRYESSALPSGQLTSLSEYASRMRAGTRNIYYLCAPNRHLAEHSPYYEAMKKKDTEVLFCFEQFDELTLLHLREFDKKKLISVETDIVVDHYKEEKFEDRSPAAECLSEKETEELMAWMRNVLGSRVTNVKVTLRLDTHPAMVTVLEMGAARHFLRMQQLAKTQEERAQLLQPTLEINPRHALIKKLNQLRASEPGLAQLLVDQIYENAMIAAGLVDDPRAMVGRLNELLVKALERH
Assay: NanoBRET in-cell target engagement assay
Format: binding
Conditions: probe-385, 1 µM; live SHSY5Y cells; FIG. 2
Experimental: In-cell target engagement assays were performed as described in Robers M.B. et al. (2019) Quantitative, Real-Time Measurements of Intracellular Target Engagement Using Energy Transfer. In: Ziegler S., Waldmann H. (eds) Systems Chemical Biology. Methods in Molecular Biology, vol 1888. Humana Press, New York, NY; Machleidt et al., ACS Chem. Biol. 2015, 10, 8, 1797-1804; or Vasta et al., Cell Chemical Biology 25, 206-214, Feb. 15, 2018; or as described herein.
Below is a protocol for transient transfection of SHSY5Y cells with NanoLuc® fusions. • 1. Cultivate SHSY5Y cells appropriately prior to assay in MEM w NEAA supplemented with 10% FBS. • 2. Remove medium from cell flask via aspiration, trypsinize, and allow cells to dissociate from the flask. • 3. Neutralize trypsin using growth medium and pellet cells via centrifugation at 200 g for 5 minutes. • 4. Aspirate medium and re-suspend cells into a single cell suspension using complete cell culture medium. • 5. Adjust the cell density to 300 K/mL in cell culture medium in a sterile, conical tube. • 6. Prepare lipid:DNA complexes as follows (this covers two assay plates, adjust numbers for more plates) • a. Prepare a 10 µg/mL solution of DNA in Opti-MEM without serum. This solution should contain the following ratios of carrier DNA and DNA encoding NanoLuc® fusion. • i. 5.0 µg/mL of Transfection Carrier DNA (pGEM) • ii. […]

displacement of nanoBRET tracer: displacing the nanoBRET tracer molecule
SMILES: O=C(Nc1ccc2c(c1)S(=O)(=O)N(c1ccc(Br)cc1)CCO2)c1cnc(-c2ccccc2)[nH]1 [Compound 1331, N-(2-(4-bromophenyl)-1,1-dioxido-3,4-dihydro-2H-benzo[b][1,4,5]oxathiazepin-8-yl)-2-phenyl-1H-imidazole-5-carboxamide]
